Holding throughout (assay type): cell-based
Data set [1] concerns deoxygenation-activated Ca2+-permeable conductance in human SS cells. The data set can be described thus: On-cell patch clamp of deoxygenation-activated Ca2+-permeable conductance, CaCl2 in pipette. Conditions: 1 μM in the pipette; -Vp=-25 mV. How it is done:
Blood cell preparation: Human SS and AA blood was obtained under IRB-approved protocols of Children's Hospital and Beth Israel Deaconess Medical Center. After buffy coat removal and 5 washes in standard human red cell wash solution containing (in mM) 150 choline Cl, 1 MgCl, and 10 Tris-MOPS, pH 7.4, red cells were resuspended in storage solution containing (in mM) 145 KCl, 15 NaCl, and 10 HEPES, pH 7.4, then kept at 4° C. until used. […]
Mouse red cells allowed to settle on coverslips were superfused 15 min with bath solution containing (in mM) either 150 mM Na methanesulfonate, 10 Na EDTA, and 10 Na HEPES, pH 7.4; or 140 NaCl, 4 KCl, 1CaCl2, 1 MgCl2, 10 Na HEPES, pH 7.4. […] The resulting bath pO2 was 18 mm Hg as measured by oxygen electrode (WPI). […]
On-cell patch clamp: Borosilicate pipettes (Corning 7052) pulled with a Narishige two stage puller or a Sutter P97 puller and fire-polished to resistances of 10-20 MΩ were front-filled and then backfilled. […] For study of deoxygenation-induced monovalent cation permeation in the absence of bath Ca^2+ and Mg^2+ recorded in SAD and Berkeley mouse cells and in human cells, symmetric bath and pipette solutions contained (in mM) 150 Na methanesulfonate, 10 Na EDTA, and 10 Na HEPES, pH 7.4. […]
On-cell patch currents were recorded with the Axopatch 1-D amplifier (Axon Instruments/Molecular Devices, Sunnyvale, Calif.). […]
In general terms: In patch-clamp work, channel activity is measured electrically.

Data set [2] relates to human SS red cells. As to the kind of experiment: Fluo-3 fluorescence measurement of [Ca2+]i during deoxygenation, human SS cells. The following applies: 1 μM, 10 min pretreatment and continued presence in bath. How it is done:
Blood cell preparation: Human SS and AA blood was obtained under IRB-approved protocols of Children's Hospital and Beth Israel Deaconess Medical Center. After buffy coat removal and 5 washes in standard human red cell wash solution containing (in mM) 150 choline Cl, 1 MgCl, and 10 Tris-MOPS, pH 7.4, red cells were resuspended in storage solution containing (in mM) 145 KCl, 15 NaCl, and 10 HEPES, pH 7.4, then kept at 4° C. until used. Human red cells allowed to settle on coverslips were mounted on an inverted microscope in a 200 μl open chamber (WPI, Sarasota, Fla.) and superfused 15 min at room temperature by bath solution containing (in mM) 150 Na methanesulfonate, 10 Na EDTA, and 10 Na HEPES, pH 7.4.
Washed human or mouse red cells in solution containing (in mM) 140 NaCl, 5 KCl, 1 CaCl2, 1 MgCl2, 10 Na HEPES, pH 7.4 were exposed for 1 hr on a rotary platform in a 37° C. incubator to 25 ppm carbon monoxide (CO) in 5% CO2. CO-exposed cells were then subjected to patch clamp or to calcium imaging experiments within 60 min after return to room air, using the solutions indicated.
Fluorescence measurements of cytosolic [Ca^2+] ([Ca^2+]i): After removal of plasma and buffy coat by aspiration, human or mouse red cells were washed three times at room temperature and suspended in modified Hank's solution containing (in mM), 137 NaCl, 5.4 KCl, 1 CaCl2, 1 MgCl2, 0.8 NaK phosphate, 5.6 glucose, and 10 Na HEPES, pH 7.4. Dilute cell suspensions were settled on polylysine-coated coverslips forming the bottom of an open perfusion chamber (2.5 cm diameter, 1 cm depth) and washed again 3 times.
Measurement of relative changes in [Ca^2+]i by Fluo-3 fluorescence emission was previously validated in intact human (Yang et al. 2000, Blood, 95(7):2421-2425; Andrews et al. 2002, Blood, 199(9):3392-3399) and mouse red cells (Akel et al. 2007, Amer. J. Physiol., 292(5):C1759-1767). […] Fluorescence emission (proportional to [Ca^2+]i) from a 535ds20 bandpass filter was collected from all attached single cells within the arbitrarily selected visual field. […]
Fluo-3 fluorescence from attached cells on each coverslip was recorded 60 sec in room air and then for 10 min after onset of perfusion chamber flushing with humidified 100% N2. The normalized increase in Fluo-3 fluorescence in SS cells subjected to this deoxygenation procedure was indistinguishable from that observed during superfusion of cells in a closed perfusion chamber via syringe pump with bath previously bubbled for 60 min with 100% N2 (n=62 cells from 2 SS patients, not shown). The y-axis value of 0% change in Fluo-3 fluorescence intensity represented mean intensity recorded from all cells within the coverslip visual field during the 60 sec prior to deoxygenation.

Data set [3] addresses T1, KCa3.1 (Homo sapiens, UniProt O15554).
T1 construct: KCa3.1 activity stimulated in intact human AA cells by 1 μM A23187; endogenous in cells; host or cells: intact human AA red blood cells
Conditions: 1 μM; intact human AA cells, 1 μM A23187, extracellular Ca2+; n=3.

The test system of data set [4] is red cell. Conditions: data not shown.

These results are taken from patent US9211313B2, “Methods and compound to inhibit Ca2+ permeable cation conductance” (priority 2011, dated 2015).

T1 sequence (O15554 whole entry): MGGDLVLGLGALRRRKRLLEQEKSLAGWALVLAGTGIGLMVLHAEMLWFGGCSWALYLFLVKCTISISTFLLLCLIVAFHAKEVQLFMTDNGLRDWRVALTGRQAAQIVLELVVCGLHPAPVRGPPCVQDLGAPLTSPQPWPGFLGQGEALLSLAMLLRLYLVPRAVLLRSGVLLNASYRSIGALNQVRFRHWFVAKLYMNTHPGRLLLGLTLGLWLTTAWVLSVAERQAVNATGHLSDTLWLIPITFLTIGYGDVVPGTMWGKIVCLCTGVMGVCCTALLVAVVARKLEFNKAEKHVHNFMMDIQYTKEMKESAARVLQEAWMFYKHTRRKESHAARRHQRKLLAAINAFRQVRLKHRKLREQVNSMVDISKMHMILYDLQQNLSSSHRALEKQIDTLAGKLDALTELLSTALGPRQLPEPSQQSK

“Grammastola spatulata mechanotoxin 4 (GCLEFWWKCNPNDDKCCRPKLKCSKLFKLCNFSF; listed as Grammastola spatulata) [GsMTx-4]”: the “effect on deoxygenation-induced increase in NPo, Ca2+ in the pipette” value in data set [1] is reported as “prevented”. The “effect on [Ca2+]i elevation by deoxygenation” value in data set [2] is given as “prevented”; in data set [2] (listed as GsMTx4), “nearly completely block”; in data set [2] (listed as GsTMx-4), “blocked”. Further, the “effect on KCa3.1 activity, cell shrinkage” value in data set [3] is “no effect”. Further, in data set [4], the “effect on red cell shape” value was “did not alter”.
